# Results published in patent US5780303A, “Method and composition for treating thrombosis” (priority 1995, dated 1998).
# Where two headings read alike, the source gives them in different places.
# What was measured:
# [1] = test system: platelets; assay: Platelet aggregation of small cyclic disulfide and lactam peptides; format: cell-based; settings: for potency against platelet aggregation relative to 8×: comparator 8×
# Procedure: (§1) Platelet aggregation was assessed using the method of Born, Nature 194:927-929 (1962), incorporated herein by reference. Briefly, the change in light transmission was measured through a stirred suspension of platelets in an aggregometer (Model 400 VS, Chrono-Log, Havertown, Pa., USA). […] In studies using thrombin, the PRP was gel-filtered on Sepharose 2B in divalent ion-free Tyrode's solution containing 2% BSA. For all studies, the reference standard was platelet-poor plasma, which was obtained by centrifuging PRP at 1000×g for 5 min.
# (§2) All aggregation studies were performed at 37° C. with a constantly stirred suspension of 3×10^8 platelets/mL. (Platelet count was determined with the aid of a hemacytometer.) Peptides and stimulants were added to these suspensions in 1% dilutions. The PRP and gel-filtered platelets were used within three hours from the time of blood collection.
# [2] = test system: coronary thrombosis; assay: Electrically induced canine coronary thrombosis, time to full occlusion; format: in vivo, dog
# Procedure: Male mongrel dogs weighing 14 to 20 kg were selected based on proper aggregation of their platelets in response to arachidonic acid, collagen, and adenosine disphosphate (ADP) and based on similar weights and hemodynamic properties.
# Before surgery, the animals were anesthetized with sodium pentobarbital (30 mg/kg, i.v.) and then intubated and ventilated on room air with positive pressure using a respirator (Harvard Apparatus, S. Natick, Mass.) at a volume of 30 ml/kg and a frequency of 12 breaths/min. Surgery, performed under aseptic conditions, was begun with the placement of cannulae into the left carotid artery and jugular vein for monitoring arterial blood pressure (Statham P23 pressure transducer, Gould, Inc., Cardiovascular Products, Oxnard, Calif.) and administering intravenous fluids.
# The heart was exposed via a left thoracotomy through the 5th intercostal space. A 2-cm segment of the left circumflex coronary artery (LCCA) was isolated from surrounding tissue by blunt dissection. […] The intra-coronary electrode was constructed by attaching a 25-gauge hypodermic needle tip to a 30-gauge Teflon-insulated silver-coated copper wire. The mechanical occluder was constructed of stainless steel in a C shape with a Teflon screw (2 mm diameter) on top. It was adjusted to control vessel circumference and decrease the reactive hyperemic flow due to a 10-sec (full) occlusion by 50-70% without affecting basal coronary blood flow (FIG. 1). A monopolar epicardial electrode was sutured to the surface of the ventricle in the region of LCCA distribution to monitor ischemic changes in the electrocardiogram (ECG). The left atrium was cannulated with polythylene tubing for administration of the peptide. Continuous recordings of blood pressure, limb lead II ECG, epicardial electrogram, and mean and phasic LCCA blood flow were obtained on a Model 7 polygraph (Grass Instrument Co., Quincy, Mass.).
# One hour after the completion of surgery, a 100 micro-amp continuous anodal direct current delivered from a 9 volt nickel-cadmium battery was applied to the intimal surface of the LCCA. The anode of the battery was in series with a 250,000 ohm potentiometer and the intraluminal coronary artery electrode. The electric circuit was completed by placing the cathode in a subcutaneous site. Electrical stimulation was applied for three hours. At the conclusion of each experiment, the heart was fibrillated electrically and quickly removed, and the LCCA was dissected free as far as possible to verify he position of the implanted anodal electrode.
# (§3) Animals were randomly assigned to two treatment groups: vehicle control (i.e., normal saline) or RGD peptides at various concentrations. Peptides were administered intra-atrially in both bolus and continuous injections. Each bolus injection consisted of 0.5 to 10 mg/kg and was administered 15 minutes before application of the current. A continuous infusion of the same peptide was then started immediately after completion of this initial injection. Animals received a 25 μg/kg/min to 200 μg/kg/min infusion. The anti-thrombotic effects of the peptides were monitored until 30 minutes after the occurrence of a persistent, occlusive thrombus or five hours after the initiation of electrical stimulation (whichever resulted first). If an occlusive thrombus had not developed within four hours after the initiation of current, the peptide infusion was stopped.
# Coronary thrombosis was quantified as the time to full occlusion. The effects of the various peptide treatments on coronary thrombosis is illustrated in FIG. 4.
# [3] = test system: platelets; assay: Ex vivo platelet aggregation in canine coronary thrombosis model; set-up: species or system dog
# Procedure: For all ex vivo studies (see FIG. 3), control aggregation values were standardized to the percentages of light transmission observed in PRP and PPP samples (0% and 100%, respectively).
# as §3
# Platelet counts and ex vivo aggregation studies were performed one hour before and 1, 3, and 5 hours after application of anodal direct current.
# Platelet aggregation was also determined ex vivo at one, three, and five hours after current application. For these studies, arachidonic acid, or collagen was again used to stimulate the platelets.
# [4] = Peripheral blood flow (PBF) by laser doppler probe, rabbit ear; format: in vivo; settings: time 10 min; bolus dose per drug
# Procedure: In an alternative series of experiments, (Table 2) PBF was measured quantitatively with a laser dopler flow probe (Perimed). The probe was positioned securely over the vascular bed of one ear and flow monitored continuously. Each inhibitor was infused and CBT measured in the opposing ear. No arterial catheter was placed for blood sampling, consequently XPA […] in these animals.
# As positive control, epinephrine was infused intravenously (1 mg over 2 minutes) at 60 minutes. The resulting vasoconstriction reduced flow to near 0 flow units within 5 minutes.
# [5] = test system: platelets; assay: Ex vivo inhibition of platelet aggregation (Table IV); format: in vivo; settings: dose per code
# Procedure: Using the method described in Example V to measure ex vivo inhibition of platelet aggregation and the method described in Example VII to measure bleeding, four additional peptides were tested. These peptides included 11J, 11Q, 11K and 11V.
# [6] = test system: platelets; assay: Thrombin-stimulated platelet aggregation (Table I); format: cell-based, human; settings: thrombin 2 U/ml, gel-filtered platelets; unit only in text b178 (printed μm)
# Procedure: as §1, with “Platelet aggregation assays were performed following the methods of this Example or those of Example IX.G. Platelet” for “Platelet”, “Tyroda's” for “Tyrode's”
# as §2, with “platelets/ml.” for “platelets/mL.”
# Peptide anti-aggregation potencies were determined from dose-responsive curves for the inhibition of the maximum aggregation responses stimulated by physiologic doses of ADP (10 μm) and thrombin (2 U/ml).
# [7] = test system: platelets; format: cell-based, human; settings: ADP 10 μM, citrated PRP; unit only in text b178 (printed μm); read-out: ADP-Stimulated Aggregation
# Procedure: Platelet aggregation assays were performed following the methods of this Example or those of Example IX.G. Platelet aggregation was assessed using the method of Born, Nature 194:927-929 (1962), incorporated herein by reference. Briefly, the change in light transmission was measured through a stirred suspension of platelets in an aggregometer (Model 400 VS, Chrono-Log, Havertown, Pa., USA). Studies employing ADP were performed with platelet-rich plasma (PRP), which was obtained by low-speed centrifugation (200×g for 10 min.) of whole blood freshly drawn into trisodium citrate (at a final concentration of 11 mm). In studies using thrombin, the PRP was gel-filtered on Sepharose 2B in divalent ion-free Tyroda's solution containing 2% BSA. For all studies, the reference standard was platelet-poor plasma, which was obtained by centrifuging PRP at 1000×g for 5 min.
# All aggregation studies were performed at 37° C. with a constantly stirred suspension of 3×10^8 platelets/ml. (Platelet count was determined with the aid of a hemacytometer.) Peptides and stimulants were added to these suspensions in 1% dilutions. […]
# [8] = test system: Gore-tex vascular graft thrombosis; assay: Platelet and fibrinogen uptake by Gore-Tex grafts, baboon ex vivo shunt; format: in vivo
# Procedure: Adult male baboons (weighing 16 to 25 kg) were used in these studies. These were sedated with ketamine hydrochloride (200 to 250 mg intramuscular injection) and maintained under anesthesia with sodium pentobarbital (50 to 75 mg administered intravenously as necessary).
# Twenty-four hours before the ex vivo shunt was established, platelets were isolated from 500 ml of blood from the test animal and labelled with ca. of 500 microcuries of indium-111 oxine (Medi+Physics, Emeryville, Calif.), which irreversibly and specifically binds to platelets with an efficiency of 50%. Immediately after labelling, these platelets were then injected back into the animal and allowed to circulate for 24 hours. Immediately before the start of the study, fibrinogen that had been isolated from the animal and labelled with iodine-131 (DuPont Nuclear, Boston, Mass.) was also injected back into the animal. Also at this time, baseline determinations of the clotting and template bleeding times were made, and blood samples were drawn for hematology studies.
# To establish the ex vivo shunt, the femoral artery and vein were percutaneously cannulated with introducer catheters (KMA Inc., Mansfield, Mass.). The catheters were then connected to medical-grade, heparin-coatedsilastic tubing (2.59 mm internal diameter, (Extracorporeal Medical Specialties, Inc., King of Prussia, Pa.). […] Finally, a 5 cm-long test segment of a 4 mm (internal diameter) vascular graft was inserted at the apex of the circuit. The graft used in these studies was Gore-tex (expanded polytetrafluoroethylene, (W. L. Gore and Associates, Inc., Flagstaff, Ariz.). An electromagnetic flow probe was then inserted into the tubing circuit to measure blood flow, which was maintained at 100 ml/min. by varying the resistance imported by a partially occluding screw clamp that was distal to the probe. Finally, a 5 cm-long test segment of a 4 mm (internal diameter) vascular graft was inserted at the apex of the circuit. The graft used in these studies was Gore-tex (expanded polytetrafluoroethylene, W. L. Gore and Associates, Inc., Flagstaff, Ariz.).
# Platelet deposition onto the grafts was monitored by dynamic scanning with a gamma camera (Sigma 400, Ohio Nuclear, Inc., Sohon, Ohio), which detects the gamma radiation emitted by the ^111 indium-labelled platelets. Once the circuit was in place, the animal was placed under this camera, and blood flow was initiated. Scans were then taken at the rate of one frame per two minutes for two hours. The data from these scans were collected on a dedicated Digital MDA computer (Maynard, Mass.). […]
# [9] = test system: platelets; assay: Ex vivo platelet aggregation in baboon PRP; settings: animal 2; PRP at 0, 1, 2 h
# Procedure: At one- and two-hour time points, template bleeding times were measured, and blood samples were drawn to assess the hematology aggregation studies. Platelet aggregation studies were performed as described in Example V using ADP as the stimulus.
# In addition, platelet aggregation studies were conducted on PRP derived from the second animal. Whole blood was drawn at three time points (0, 1 and 2 hours) of both control and experimental shunts.
# [10] = target: GP IIb/IIIa (Homo sapiens, UniProt P05106+P08514); assay: Differential inhibition of ligand binding to GP IIb/IIIa; settings: fibrinogen vs fibronectin and vitronectin
# [11] = animal 1, two bolus IV injections of 10 mg/kg
# [12] = animal 2, 10 mg/kg bolus IV plus 10 mg/kg/hr infusion for 2 h
# Chain of GP IIb/IIIa (P08514 32-887 limits assumed): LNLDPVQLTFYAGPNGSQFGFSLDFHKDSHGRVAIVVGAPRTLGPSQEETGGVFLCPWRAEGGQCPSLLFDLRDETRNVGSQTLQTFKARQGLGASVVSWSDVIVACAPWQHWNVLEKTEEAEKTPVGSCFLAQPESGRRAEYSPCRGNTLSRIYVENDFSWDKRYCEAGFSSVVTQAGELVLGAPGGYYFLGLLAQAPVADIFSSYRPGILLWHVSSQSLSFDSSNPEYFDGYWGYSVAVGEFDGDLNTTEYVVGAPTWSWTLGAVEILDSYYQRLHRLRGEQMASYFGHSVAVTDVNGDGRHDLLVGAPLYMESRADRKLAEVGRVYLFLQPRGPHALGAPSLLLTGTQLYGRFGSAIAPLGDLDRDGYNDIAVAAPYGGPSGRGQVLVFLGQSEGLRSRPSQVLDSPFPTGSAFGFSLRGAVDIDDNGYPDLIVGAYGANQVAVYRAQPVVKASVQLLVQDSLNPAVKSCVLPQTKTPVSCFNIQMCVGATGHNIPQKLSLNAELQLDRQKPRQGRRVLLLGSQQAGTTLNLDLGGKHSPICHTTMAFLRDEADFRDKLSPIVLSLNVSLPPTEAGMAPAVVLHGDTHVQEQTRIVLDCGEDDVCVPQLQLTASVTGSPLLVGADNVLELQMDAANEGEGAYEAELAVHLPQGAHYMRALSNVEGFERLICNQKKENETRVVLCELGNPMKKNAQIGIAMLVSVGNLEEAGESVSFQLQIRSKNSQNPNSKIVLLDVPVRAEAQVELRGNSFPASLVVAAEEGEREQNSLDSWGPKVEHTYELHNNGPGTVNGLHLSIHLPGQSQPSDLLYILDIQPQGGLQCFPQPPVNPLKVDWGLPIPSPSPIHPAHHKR
# Chain of GP IIb/IIIa (P08514 891-1039 partner limits assumed): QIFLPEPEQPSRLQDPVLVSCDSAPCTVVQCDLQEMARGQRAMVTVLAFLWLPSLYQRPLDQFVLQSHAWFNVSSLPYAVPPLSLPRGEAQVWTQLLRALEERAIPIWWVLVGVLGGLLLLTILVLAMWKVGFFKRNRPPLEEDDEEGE
# Chain of GP IIb/IIIa (P05106 27-788): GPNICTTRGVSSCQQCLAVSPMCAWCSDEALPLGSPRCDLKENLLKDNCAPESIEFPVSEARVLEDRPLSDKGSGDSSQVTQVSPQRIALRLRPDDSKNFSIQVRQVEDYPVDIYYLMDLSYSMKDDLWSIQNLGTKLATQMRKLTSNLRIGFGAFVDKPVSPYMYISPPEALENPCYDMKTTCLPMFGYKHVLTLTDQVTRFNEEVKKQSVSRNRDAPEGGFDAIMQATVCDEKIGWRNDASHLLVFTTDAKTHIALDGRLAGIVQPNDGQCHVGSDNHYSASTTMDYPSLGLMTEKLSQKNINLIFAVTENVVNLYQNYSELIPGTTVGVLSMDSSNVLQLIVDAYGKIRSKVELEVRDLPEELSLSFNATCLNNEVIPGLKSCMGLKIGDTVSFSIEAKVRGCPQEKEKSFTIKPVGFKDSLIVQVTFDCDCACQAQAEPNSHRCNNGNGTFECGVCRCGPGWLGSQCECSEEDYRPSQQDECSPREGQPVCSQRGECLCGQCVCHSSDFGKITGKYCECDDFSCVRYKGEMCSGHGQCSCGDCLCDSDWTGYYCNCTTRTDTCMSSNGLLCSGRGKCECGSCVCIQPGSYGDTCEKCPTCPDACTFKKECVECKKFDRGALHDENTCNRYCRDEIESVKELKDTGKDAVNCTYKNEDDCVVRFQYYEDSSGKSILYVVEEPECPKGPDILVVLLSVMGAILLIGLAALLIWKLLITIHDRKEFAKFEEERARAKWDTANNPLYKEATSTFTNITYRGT
substance,measurement,setting,value
RGD(O-Me-Y)RE-NH2 [21I],potency against platelet aggregation relative to 8×,[1],about three-fold more reactive than 8×
R(Pen)GHRGDWRCR [4Q],time to full occlusion (coronary thrombosis),[2]; 5 mg/kg,significantly prolonged the time to occlusion
same,thrombus formation,"[2]; 5 mg/kg, circulating platelet levels one-third of normal",able to prevent thrombus formation
same,time to full occlusion (coronary thrombosis),[2]; 10 mg/kg bolus plus infusion,completely prevented occlusion
same,ex vivo platelet activation by collagen,[3]; 5 mg/kg,near-maximal inhibition
same,ex vivo platelet response to ADP and AA,"[3]; 5 mg/kg, all three time points",completely unresponsive
same,ex vivo platelet responsiveness,"[3]; 10 mg/kg, five-hour point",platelet responsiveness was slightly improved
same,"ex vivo platelet aggregation, all three stimuli","[3]; 10 mg/kg, one- and three-hour time points",prevented platelet aggregation
same,PBF (units),[4],9 units
Ac-CNPKGD(Y-OMe)RC-NH2 [11Q],ex vivo inhibition of platelet aggregation (%),[5],> 95%
R2 (Pen)GHGDTPCA,IC50,[6],2.7 µM
same,IC50,[7],8.2 µM
R(Pen)GRGDWPCR [4R],time to full occlusion (coronary thrombosis),[2]; 3 mg/kg,ineffective
same,time to full occlusion (coronary thrombosis),[2]; 10 mg/kg bolus plus infusion,prevented occlusion throughout the duration of the study
same,"ex vivo platelet response, all modes of stimulation","[3]; 10 mg/kg, all time points",unresponsive to all modes of stimulation at all time points
Ac-CNPRGD(Y-OMe)EC-NH2 [11J],ex vivo inhibition of platelet aggregation (%),[5],> 98%
Ac-CNPRGD(Y-OMe)AC-NH2 [11K],ex vivo inhibition of platelet aggregation (%),[5],> 98%
(Myr)RGD(O-Me-Y)RC-NH2 [16A],potency against platelet aggregation relative to 8×,[1],about two-fold more reactivity than 8×
same,IC50,[1]; read-out: inhibited platelet aggregation with an IC50,0.12 µM
G(Pen)GHRGDLRCA [2G],time to full occlusion (coronary thrombosis),[2]; 10 mg/kg bolus plus infusion,did not significantly influence this frequency
same,reduction in 111In-platelet uptake by graft,[8]; [11],90%
same,reduction in 131I-fibrinogen uptake by graft,[8]; [11],79%
same,reduction in labelled fibrinogen uptake by graft,[8]; [12],78%
same,reduction in labelled platelet uptake by graft,[8]; [12],84%
same,ex vivo ADP-stimulated aggregation,"[3]; 10 mg/kg, 1, 3, 5 h",substantially inhibited
same,ex vivo platelet response to ADP (10 μM),[9],completely unresponsive
Ac-CNPRGD(Y-OMe)(Nle)C-NH2 [11V],ex vivo inhibition of platelet aggregation (%),[5],> 98%
Ac-CNPRGD(Y-OMe)RCNH2 [8x],differential inhibition of binding of ligands to GP IIb/IIIa,[10],inhibits the binding of fibrinogen to GP IIb/IIIa more than it inhibits the binding of fibronectin and vitronectin to the same integrin
G(dPen)GHRGDLRCA,IC50,[7],5.28 ± 0.7 µM
